# From patent US11779602B2, “Methods of use for CAR T cells” (ENDOCYTE, INC., priority 2018, dated 2023)
# Test system: MDA-MB-231 tumors
# Experiment: EC17/E2-CAR T-cell therapy in NSG mice with and without MDA-MB-231 tumors
# Assay type: in vivo
# Procedure: MDA-MB-231 tumor cells were grown in folate-deficient RPMI 1640 with 5-10% FBS at 37° C. in a 5% CO2 humidified atmosphere. MDA-MB-231 tumor cells were inoculated subcutaneously at 2.5×10^6 cells per animal. Only […] mice were inoculated and the remaining 22 mice were kept tumor-free.
# EGFRt-sorted anti-FITC E2 scFv-CAR T cells were frozen in a T-cell freezing medium. Vials of frozen CAR-T cells were immediately stored at −80° C. The CAR-T cells were quickly thawed at 37° C., washed twice with PBS, and used for animal injection at 10 million viable EGFRt+ E2 CAR-T cells (CD4/CD8 at ˜1:1) per animal. A small aliquot was taken on the day infusion for flow cytometric analysis of E2-CAR T-cell phenotypes.
# Mouse blood samples were processed for plasma and stored at −20° C. until use. A human TH1 cytokine panel (Biolegend, Cat. No. 740009) and a human hematopoietic stem cell cytokine panel (Biolegend, Cat. No. 740610) was used to detect human cytokines in the mouse blood. A mouse 13-plex inflammatory cytokine panel (Biolengend, No. 740150) was used to detect mouse cytokines. All analyses were performed per the manufacturer's instructions.
# Whole blood cell analysis: Plasma was removed from predetermined volumes of whole EDTA treated blood and RBCs were lysed with RBC lysis solution. […] Determination of the concentration of CAR T cells in each blood sample was calculated according to Invitrogen's instructions. CAR T cells were identified as human CD3ε+ EGFRt+ events and easily distinguished and counted using the Kaluza™ flow cytometry software. The number of CAR T cells in the circulation of each infused mouse was then represented on the graphs as the total number of CAR T cells per 100 μL of whole blood analyzed. Statistical significance was determined by utilizing an unpaired, two-tailed, students t-test with significance set at p<0.05. […]
smiles,measurement,setting,value
"NC1=NC2N=CC(CNc3ccc(C(=O)N[C@@H](CCC(=O)NCCNC(=S)Nc4ccc(-c5c6ccc(=O)cc-6oc6cc(O)ccc56)c(C(=O)O)c4)C(=O)O)cc3)=NC2C(=O)N1 (stereo partly shown) [EC17, FA-(γ)-ethylenediamine-FITC]","IFN-γ production, tumor-bearing vs tumor-free mice","10 million E2 CAR-T cells, EC17 500 nmol/kg days 2 and 10, plasma 20 hours after second dose",23 fold
same,increase in circulating E2 CAR T cells per 100 uL whole blood vs cohorts without EC17,cohorts which received EC17 stimulation,more than 10 fold
same,CAR-T cell expansion by FACS in tumor-free mice,post EC17 SIW500×2 doses,no detectable CAR-T cell expansion
same,"cytokine production (IL2, IFN-γ, IL-10) in tumor-bearing mice",with vs without EC17 dose,EC17-dependent
